Source: publication PMC9021288 (Nature Communications, 2022)
Several values for one entry are separate records, joined by “and”; a condition that tells them apart may be missing. Equal values may be shown once. Read-outs that look alike come from different tables or passages of the source.

What was measured:
[1] = Blood concentration and PK in infected NSG mice after single oral dose; type: in vivo, mouse
Description: The effect of pantothenamides on P. falciparum Pf3D7^0087/N9 [66] in vivo was assessed in female NSG mice (NODscidIL2Rγ^null) at the Swiss Tropical and Public Health Institute (Basel, Switzerland) as described previously (Supplementary Table 30)[15],[67]. Briefly, humanized mice were engrafted daily with human erythrocyte suspensions from days -11 to day 6. After 11 days (day 0), mice were injected intravenously with 3×10^7 infected RBCs in a volume of 0.1 ml. On day 4, groups of n = 2 mice were treated with a single dose pantothenamides or chloroquine (50 mg/kg) by oral gavage. The hematocrit of all dosed mice and an untreated control group (n = 4 mice) was determined by fluorescence-activated cell sorting and parasitemia was analyzed by microscopy on >10,000 RBCs as described before. Samples to quantify compound metabolites were collected and prepared at different time points (1, 2, 4, 6, and 24 h after treatment) for each mouse by mixing 20 µl of whole blood with 20 µl of Milli-Q, followed by immediate freezing of samples on dry ice. […] Serial dilutions were prepared in the same solvent to concentrations 50 times higher than the corresponding CAL and QC concentrations. The concentrations were calculated under consideration of purity and salt factor. The spiking of the CAL and QC sample were performed at room temperature. The eight calibration levels were 5.00, 10.0, 50.0, 100, 500, 1000, 3750, and 5000 ng/mL and three QC levels 15.0, 100, and 3750 ng/mL were analyzed in duplicate, together with the study samples.
For the sample precipitation, to an aliquot of 10 µL mouse blood/water (1/1) study sample, 20 µL of acetonitrile containing the internal standard MMV1542001 at a concentration of 100 ng/mL was added. After vortex mixing, the samples were centrifuged for 10 min at 50,000 g at 8 °C. Subsequently, an aliquot of 20 µL of the supernatant was transferred to an autosampler vial and an aliquot of 5 µL was injected onto the LC-MS/MS system.
The samples were handled by an autosampler CTC PAL (CTC Analytics AG, Zwingen, Switzerland) set at 8 °C. The chromatography column used was a YMC Hydrosphere C18, 2.1 × 33 mm, 3 µm (YMC Co. Ltd., Kyoto, Japan), kept at room temperature. The aqueous mobile phase consisted of water containing 0.1 % formic acid, whereas the organic mobile phase consisted of acetonitrile containing 0.1 % formic acid, pumped by HPLC pump from Agilent 1200 series (Agilent Technologies Inc, Santa Clara, CA, USA). The HPLC gradient was as follows: 95% phase A, 5% phase B for 0.20 min, followed by transition to 5% phase A, 95% phase B in 1 min, 2 min at these concentrations, and a subsequent increase to 95% phase A, 5% phase B in 0.05 min which is kept for the remaining 0.75 min.
The detection of MMV693183 was performed using a TSQ Access mass spectrometer (Thermo Fisher Scientific, San Jose, CA, USA) by selected reaction monitoring. The ion source was heated electrospray ionization, using a negative polarity. Following parameters were used: Voltage 2500 [V], Vaporizer temperature 350 [°C], Sheath gas 60 [au], Auxiliary gas 5 [au], Capillary temperature 350 [°C] and Collision gas pressure 1.0 [mTorr]. […] The transition used for the internal standard was: parent ion 325.030 m/z—daughter ion 195.000 m/z.
The concentration of the analyte was calculated using the internal standardization method. The area ratio of analyte to internal standard against the concentration of calibration samples was used for quantification. The acquisition and processing of data were performed using LCquan 2.5.6 and Xcalibur 2.0.7. Microsoft Office Excel 2007 Prof was used for calculations and statistical evaluation of data. […] The Lower Limit of Quantification was 5.00 ng/mL in […], whereas The Upper Limit of Quantification was 5000 ng/mL in mouse blood/water (1/1).

[2] = system: P. falciparum NF54-HGL gametocytes; assay: Gametocyte viability assay (72 h, luminescence); type: cell-based, Plasmodium falciparum; settings: for gametocyte viability, dose-response: NF54-HGL
Description: Gametocyte viability assays on NF54-HGL parasites were performed using an adapted high-throughput protocol as previously described[15],[64]. In short, asexual blood-stage parasite cultures were set up at 1% parasitemia in a semi-automated shaker system at 5% hematocrit. From day four until day eight or nine, parasites were treated with 50 mM N-acetyl glucosamine to eliminate all asexual blood-stage parasites. Subsequently, gametocytes were isolated by a Percoll density gradient centrifugation. At day 11, gametocytes were seeded (5,000 per well) in 30 µl in white 384-well plates containing 30 µl of compounds diluted in medium (0.1% DMSO). After a 72-h incubation, 30 µl of ONE-Glo reagent (Promega) was added according to manufacturer’s protocol and luminescence was quantified using the BioTek Synergy 2 Plate reader. Values were normalized to DMSO- and epoxomicin or dihydroartemisinin-treated controls.

[3] = system: P. falciparum Pf3D7^0087/N9; assay: Single dose in vivo efficacy in humanized NSG mice; parameters: species or system Plasmodium falciparum; settings: for parasitemia outcome: single 50 mg/kg oral gavage on day 4, over three days
Description: The effect of pantothenamides on P. falciparum Pf3D7^0087/N9 [66] in vivo was assessed in female NSG mice (NODscidIL2Rγ^null) at the Swiss Tropical and Public Health Institute (Basel, Switzerland) as described previously (Supplementary Table 30)[15],[67]. Briefly, humanized mice were engrafted daily with human erythrocyte suspensions from days -11 to day 6. […] On day 4, groups of n = 2 mice were treated with a single dose pantothenamides or chloroquine (50 mg/kg) by oral gavage. […] Serial dilutions were prepared in the same solvent to concentrations 50 times higher than the corresponding CAL and QC concentrations. The concentrations were calculated under consideration of purity and salt factor. The spiking of the CAL and QC sample were performed at room temperature.

[4] = day 5 post infection, 50 mg/kg p.o. on day 4, per mouse, 50 mg/kg
[5] = day 6 post infection, per mouse
[6] = day 7 post infection, per mouse
[7] = per replicate experiment, read-out: IC50, sexual blood stages

| SMILES | AUC0-24h ([1]; 50 mg/kg p.o.) [ng·h/mL] | Cmax ([1]; 50 mg/kg p.o.) [ng/mL] | T1/2 ([1]; 50 mg/kg p.o.) [h] | Tmax ([1]; 50 mg/kg p.o.) [h] | concentration in blood ([1]; 1 h post treatment, per mouse) | concentration in blood ([1]; 2 h post treatment, per mouse) | concentration in blood ([1]; 4 h post treatment, per mouse) | concentration in blood ([1]; 6 h post treatment, per mouse) | concentration in blood ([1]; 24 h post treatment, per mouse) | Parasitemia [3, 4] | Parasitemia [3, 5] | Parasitemia [3, 6] | parasitemia outcome [3] | Sexual blood stages viability, dose-response ([2]; Log concentration (M) -9) | Sexual blood stages viability, dose-response ([2]; Log concentration (M) -9.5) | Sexual blood stages viability, dose-response ([2]; Log concentration (M) -10) | IC50 [2, 7] | Sexual blood stages viability, dose-response ([2]; Log concentration (M) -7.5) | Sexual blood stages viability, dose-response ([2]; Log concentration (M) -8) | Sexual blood stages viability, dose-response ([2]; Log concentration (M) -8.5) | further results |
| --- | --- | --- | --- | --- | --- | --- | --- | --- | --- | --- | --- | --- | --- | --- | --- | --- | --- | --- | --- | --- | --- |
| CC(CNC(=O)C(O)C(C)(C)CO)NC(=O)CCc1ccccc1F (stereo in doubt) [MMV689258] | 6730 | 3780 | 3.26 | 1.00 | 3100 ng/mL and 4460 ng/mL | 1090 ng/mL and 698 ng/mL | 368 ng/mL and 236 ng/mL | 91.8 ng/mL and 110 ng/mL | 10 ng/mL | 0.26 and 0.2 | 0.15 and 0.1 | 0.22 and 0.12 | not fully cleared | – | – | – | – | – | – | – | gametocyte viability, dose-response ([2]; Log concentration (M) -8): 82.05 and 46 and 45.3; gametocyte viability, dose-response ([2]; Log concentration (M) -8.5): 95.95 and 82.9 and 64.1; gametocyte viability, dose-response ([2]; Log concentration (M) -9): 97.75 and 94.05 and 92.15; gametocyte viability, dose-response ([2]; Log concentration (M) -9.5): 104.7 and 93.15 and 94.35; gametocyte viability, dose-response ([2]; Log concentration (M) -10): 106.25 and 112.55 and 90.95 |
| C[C@@H](CNC(=O)[C@H](O)C(C)(C)CO)NC(=O)c1cccc(C#N)c1 (stereo in doubt) [MMV884962] | 8650 | 3920 | 3.32 | 1.00 | 3920 ng/mL | 1180 ng/mL and 1170 ng/mL | 468 ng/mL and 370 ng/mL | 222 ng/mL and 193 ng/mL | 13 ng/mL and 10 ng/mL | 0.31 and 0.28 | 0.05 | 0 | reduced parasitemias below detectable levels | 92.55 and 54.1 | 110.8 and 104.4 | 97.15 and 70.3 | 5.95 nM and 2.17 nM | – | – | – | – |
| C[C@@H](CNC(=O)[C@H](O)C(C)(C)CO)NC(=O)c1cccc(F)c1 (stereo in doubt) [MMV1542001] | 11800 | 5150 | 2.80 | 1.00 | 4480 ng/mL and 5820 ng/mL | 1520 ng/mL and 1620 ng/mL | 492 ng/mL and 574 ng/mL | 314 ng/mL and 340 ng/mL | 10 ng/mL | 0.4 and 0.31 | 0.06 and 0.01 | 0 | reduced parasitemias below detectable levels | 60.65 and 74.3 | 76.05 and 100.7 | 85.65 and 89 | 1.98 nM and 9.93 nM | – | – | – | – |
| C[C@@H](CNC(=O)[C@H](O)C(C)(C)CO)NC(=O)c1cc(C#N)ccc1F [MMV693182] | – | – | – | – | 4180 ng/mL | 2200 ng/mL and 1000 ng/mL | 866 ng/mL | 266 ng/mL and 912 ng/mL | 10 ng/mL and 22.4 ng/mL | 0.28 and 0.38 | 0.03 and 0.05 | 0.02 | not fully cleared | 97.2 and 103.7 | 95 and 105.75 | 95.6 and 117.9 | 21.4 nM | 49.3 and 51 | 81.9 and 78.35 | 96 and 103.7 | concentration at 1 h ([1]; female, NSG (NODscidIL2Rγnull), mouse, whole blood, oral, 50 mg/kg, 1 h post treatment, per mouse): 6360 ng/mL; concentration at 4 h ([1]; female, NSG (NODscidIL2Rγnull), mouse, whole blood, oral, 50 mg/kg, 4 h post treatment, per mouse): 552 ng/mL; half-life ([1]; female, NSG (NODscidIL2Rγnull), mouse, whole blood, po, 50 mg/kg p.o.): 3.19 h; AUC(0 - t) ([1]; female, NSG (NODscidIL2Rγnull), mouse, whole blood, po, 50 mg/kg p.o., read-out: AUC0-24h): 15100 ng·h/mL; Cmax ([1]; female, NSG (NODscidIL2Rγnull), mouse, whole blood, po, 50 mg/kg p.o., read-out: Cmax): 5270 ng/mL; Tmax ([1]; female, NSG (NODscidIL2Rγnull), mouse, whole blood, po, 50 mg/kg p.o., read-out: Tmax): 1 h; IC50 ([2]; Plasmodium falciparum, NF54, per replicate experiment, read-out: IC50, sexual blood stages): 32.9 nM; IC50 ([2]; Plasmodium falciparum, NF54, sexual viability assay, range of independent experiments, read-out: Gametocyte IC50 range (N)): 21.4 to 32.9 nM |
| C[C@@H](CNC(=O)[C@H](O)C(C)(C)CO)NC(=O)c1cc(F)c(F)cc1F [MMV693183] | 33700 | 12900 | 2.49 | 1.50 | 6960 ng/mL and 16200 ng/mL | 9660 ng/mL and 7300 ng/mL | 2360 ng/mL and 1170 ng/mL | 802 ng/mL and 376 ng/mL | 10 ng/mL | 0.2 and 0.29 | 0.03 and 0.02 | 0 | reduced parasitemias below detectable levels | 98.1 and 92.5 and 103.2 | 107.25 and 92.05 and 100.45 | 92.05 and 87.2 and 94.15 | 17.8 nM and 36 nM and 36.8 nM | 36.75 and 49.45 and 51.8 | 69.2 and 83.95 and 95.65 | 82.4 and 91.1 and 100.8 | – |
